# Test results taken from ChEMBL document CHEMBL5584239, “Discovery of novel quinoline scaffold selective estrogen receptor degraders (SERDs) for treatment of ER positive breast cancer with enhanced antiproliferative bioactivity through immunogenic cell death (ICD) effects” (Eur J Med Chem, 2024).
# pIC50: −log10 of the molar value. Activity calls are given as the source filed them. The calls are words filed in the database; no cut-off is given here.
# Tests used:
# Ishikawa = experiment: Antiproliferative activity against human Ishikawa cells at 20 uM incubated for 3 days by MTT assay relative to control; assay type: functional; details: 72 h, time 3 day
# Uterus = experiment: Effect on immature Sprague-Dawley rat uterus assessed as reduction in uterine wet weight at 2 mg/kg, sc qd for 2 days by H and E staining based analysis; assay type: functional, organism-based; details: time 2.0 day
# MCF7 [1] = experiment: Induction of cell cycle arrest at G0/G1 phase in human MCF7 cells at 10 uM incubated for 24 hrs by PI/RNase staining based flow cytometry (reference value: 53.5 +/- 1.96 %); assay type: functional
# MCF7 [2] = experiment: Induction of ROS production in human MCF7 cells incubated for 3 to 24 hrs by immunofluorescence analysis; assay type: functional, cell-based; details: time 3-24 hrs
# MCF7 [3] = experiment: Synergistic antiproliferative activity against human MCF7 cells at 0.1 to 10000 nM incubated for 5 days in presence of Ribociclib by MTT assay; assay type: functional, cell-based; details: dose 0.1-10000 nM, time 5.0 day
# MCF7 [4] = experiment: Antiproliferative activity against human MCF7 cells incubated for 5 days by MTT assay; assay type: functional, cell-based; details: MCF7, 120 h
compound,measurement,setting,value
C[C@]12CC[C@@H]3c4ccc(O)cc4C[C@@H](CCCCCCCCC[S+]([O-])CCCC(F)(F)C(F)(F)F)[C@H]3[C@@H]1CC[C@@H]2O (stereo partly specified) [FULVESTRANT],inhibition at 20 µM,Ishikawa,-3.19%
same,Activity,Uterus,Active
same,Activity,MCF7 [1],66.83%
same,Activity,MCF7 [2],inactive
same,Activity,MCF7 [3],Active
same,pIC50,MCF7 [4],9.19
